Test results from ChEMBL document CHEMBL5715954, “Silencing c-Myc translation as a therapeutic strategy through targeting PI3Kδ and CK1ε in hematological malignancies” (Blood, 2017).
Active and inactive are the calls of the source. The rule behind the calls is not given here.

Columns and labels:
[1] = molecular target: Tyrosine-protein kinase FRK (Homo sapiens) (UniProt P42685); experiment: Inhibition of human FRK assessed as enzyme activity at 1 uM using poly[Glu:Tyr] (4:1) as substrate preincubated for 20 mins followed by [gamma-33P]-ATP addition and measured after 120 mins by radiometric Hot-SpotSM Kinase assay relative to control; set-up: scale not given: the % may be the effect or the level left
[2] = molecular target: T1, Mitogen-activated protein kinase 13 (Homo sapiens) (UniProt O15264); experiment: Inhibition of human P38d assessed as enzyme activity at 1 uM using myelin basic protein as substrate preincubated for 20 mins followed by [gamma-33P]-ATP addition and measured after 120 mins by radiometric Hot-SpotSM Kinase assay relative to control; set-up: scale not given: the % may be the effect or the level left
T1 sequence (whole entry): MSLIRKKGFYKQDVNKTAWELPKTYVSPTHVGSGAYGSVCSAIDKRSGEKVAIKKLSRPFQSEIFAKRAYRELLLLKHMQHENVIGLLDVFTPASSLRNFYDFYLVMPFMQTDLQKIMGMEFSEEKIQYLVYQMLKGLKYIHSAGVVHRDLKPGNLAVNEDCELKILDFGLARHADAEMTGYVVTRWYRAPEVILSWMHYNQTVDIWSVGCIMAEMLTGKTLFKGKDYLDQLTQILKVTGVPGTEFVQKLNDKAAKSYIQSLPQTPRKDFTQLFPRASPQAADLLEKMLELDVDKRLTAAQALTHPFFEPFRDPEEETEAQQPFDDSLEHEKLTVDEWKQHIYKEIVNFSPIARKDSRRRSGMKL

mTORC1 (Homo sapiens) [3] = molecular target: T2, mTORC1 (Homo sapiens) (UniProt P42345+Q8N122+Q9BVC4); experiment: Inhibition of mTORC1 in human CLL cells assessed as reduction in c-Myc expression at 5 uM measured after 24 hrs by Western blot analysis; format: cell-based; details: CLL cell
mTORC1 (Homo sapiens) [4] = molecular target: T2, mTORC1 (Homo sapiens); experiment: Inhibition of mTORC1 in human SLL cells assessed as reduction in c-Myc expression at 5 uM measured after 24 hrs by Western blot analysis; format: cell-based
mTORC1 (Homo sapiens) [5] = molecular target: T2, mTORC1 (Homo sapiens); experiment: Inhibition of mTORC1 in human PF-382 cells assessed as reduction in c-Myc expression at 5 uM measured after 24 hrs by Western blot analysis; format: cell-based
mTORC1 (Homo sapiens) [6] = molecular target: T2, mTORC1 (Homo sapiens); experiment: Inhibition of mTORC1 in human CLL cells assessed as reduction in 4E-BP1 phosphorylation at 5 uM measured after 24 hrs by Western blot analysis; format: cell-based; details: CLL cell
mTORC1 (Homo sapiens) [7] = molecular target: T2, mTORC1 (Homo sapiens); experiment: Inhibition of mTORC1 in human SLL cells assessed as reduction in 4E-BP1 phosphorylation at 5 uM measured after 24 hrs by Western blot analysis; format: cell-based
mTORC1 (Homo sapiens) [8] = molecular target: T2, mTORC1 (Homo sapiens); experiment: Inhibition of mTORC1 in human LY7 cells assessed as reduction in 4E-BP1 phosphorylation at 3 uM measured after 24 hrs by Western blot analysis; format: cell-based
mTORC1 (Homo sapiens) [9] = molecular target: T2, mTORC1 (Homo sapiens); experiment: Inhibition of mTORC1 in human LY10 cells assessed as reduction in c-Myc expression at 3 uM measured after 24 hrs in presence of bortezomib by Western blot analysis; format: cell-based
mTORC1 (Homo sapiens) [10] = molecular target: T2, mTORC1 (Homo sapiens); experiment: Inhibition of mTORC1 in human LY7 cells assessed as reduction in c-Myc expression at 3 uM measured after 24 hrs by Western blot analysis; format: cell-based
mTORC1 (Homo sapiens) [11] = molecular target: T2, mTORC1 (Homo sapiens); experiment: Inhibition of mTORC1 in human LY10 cells assessed as reduction in c-Myc expression at 3 uM measured after 24 hrs by Western blot analysis; format: cell-based
mTORC1 (Homo sapiens) [12] = molecular target: T2, mTORC1 (Homo sapiens); experiment: Inhibition of mTORC1 in human PF-382 cells assessed as reduction in 4E-BP1 phosphorylation at 5 uM measured after 24 hrs by Western blot analysis; format: cell-based
mTORC1 (Homo sapiens) [13] = molecular target: T2, mTORC1 (Homo sapiens); experiment: Inhibition of mTORC1 in human LY10 cells assessed as reduction in 4E-BP1 phosphorylation at 3 uM measured after 24 hrs by Western blot analysis; format: cell-based
mTORC1 (Homo sapiens) [14] = molecular target: T2, mTORC1 (Homo sapiens); experiment: Inhibition of mTORC1 in human LY10 cells assessed as reduction in c-Myc expression at 3 uM measured after 24 hrs in presence of carfilzomib by Western blot analysis; format: cell-based
LY7 [15] = experiment: Cytotoxicity against human LY7 cells assessed as reduction in cell viability measured after 24 hrs by cell titer-glo assay; format: functional, cell-based
Z-138 = experiment: Cytotoxicity against human Z138 cells assessed as reduction in cell viability measured after 48 hrs by cell titer-glo assay; format: functional, cell-based
H9 = experiment: Cytotoxicity against human H9 cells assessed as reduction in cell viability measured after 48 hrs by cell titer-glo assay; format: functional, cell-based
OCI-Ly10 [16] = experiment: Cytotoxicity against human LY10 cells assessed as reduction in cell viability measured after 24 hrs by cell titer-glo assay; format: functional, cell-based
JeKo-1 = experiment: Cytotoxicity against human JeKo-1 cells assessed as reduction in cell viability measured after 24 hrs by cell titer-glo assay; format: functional, cell-based
Rec1 = experiment: Cytotoxicity against human REC1 cells assessed as reduction in cell viability measured after 24 hrs by cell titer-glo assay; format: functional, cell-based
OCI-Ly10 [17] = experiment: Induction of apoptosis in human LY10 cells assessed as increase in cleaved-PARP expression at 3 uM measured after 24 hrs in presence of carfilzomib by Western blot analysis; format: functional, cell-based
LY7 [18] = experiment: Induction of apoptosis in human LY7 cells assessed as increase in cleaved-PARP expression at 3 uM measured after 24 hrs in presence of carfilzomib by Western blot analysis; format: functional, cell-based
PF-382 = experiment: Induction of apoptosis in human PF-382 cells assessed as increase in cleaved-PARP expression at 5 uM measured after 24 hrs in presence of carfilzomib by Western blot analysis; format: functional, cell-based
SLL = experiment: Induction of apoptosis in human SLL cells assessed as increase in cleaved-PARP expression at 5 uM measured after 24 hrs in presence of carfilzomib by Western blot analysis; format: functional, cell-based
MZL = experiment: Induction of apoptosis in human MZL cells assessed as increase in cleaved-PARP expression at 5 uM measured after 24 hrs in presence of carfilzomib by Western blot analysis; format: functional, cell-based
OCI-Ly10 [19] = experiment: Induction of apoptosis in human LY10 cells assessed as increase in caspase-3/7 activation at 1 to 3 uM measured after 24 hrs in presence of carfilzomib; format: functional, cell-based; details: dose 1-3 µM
mTORC1 (Homo sapiens) [20] = molecular target: T2, mTORC1 (Homo sapiens); experiment: Inhibition of mTORC1 in human LY10 cells assessed as reduction in c-Myc mRNA expression at 3 uM measured after 24 hrs in presence of carfilzomib; format: cell-based
mTORC1 (Homo sapiens) [21] = molecular target: T2, mTORC1 (Homo sapiens); experiment: Inhibition of mTORC1 in human LY10 cells assessed as reduction in c-Myc mRNA expression at 3 uM measured after 24 hrs in presence of bortezomib; format: cell-based
[22] = molecular target: Myc proto-oncogene protein (Homo sapiens) (UniProt P01106); experiment: Inhibition of c-Myc in human LY10 cells assessed as reduction in eIF4B expression at 3 uM incubated for 24 hrs by Western blot analysis; format: cell-based
[23] = molecular target: Myc proto-oncogene protein (Homo sapiens) (UniProt P01106); experiment: Inhibition of c-Myc in human LY10 cells assessed as reduction in E2F1 expression at 3 uM incubated for 24 hrs by Western blot analysis; format: cell-based
[24] = molecular target: Myc proto-oncogene protein (Homo sapiens) (UniProt P01106); experiment: Inhibition of c-Myc in human LY7 cells assessed as reduction in eIF4B expression at 3 uM incubated for 24 hrs by Western blot analysis; format: cell-based
[25] = molecular target: Myc proto-oncogene protein (Homo sapiens) (UniProt P01106); experiment: Inhibition of c-Myc in human LY7 cells assessed as reduction in E2F1 expression at 3 uM incubated for 24 hrs by Western blot analysis; format: cell-based

Myc proto-oncogene protein (Homo sapiens), sequence (P01106 whole entry): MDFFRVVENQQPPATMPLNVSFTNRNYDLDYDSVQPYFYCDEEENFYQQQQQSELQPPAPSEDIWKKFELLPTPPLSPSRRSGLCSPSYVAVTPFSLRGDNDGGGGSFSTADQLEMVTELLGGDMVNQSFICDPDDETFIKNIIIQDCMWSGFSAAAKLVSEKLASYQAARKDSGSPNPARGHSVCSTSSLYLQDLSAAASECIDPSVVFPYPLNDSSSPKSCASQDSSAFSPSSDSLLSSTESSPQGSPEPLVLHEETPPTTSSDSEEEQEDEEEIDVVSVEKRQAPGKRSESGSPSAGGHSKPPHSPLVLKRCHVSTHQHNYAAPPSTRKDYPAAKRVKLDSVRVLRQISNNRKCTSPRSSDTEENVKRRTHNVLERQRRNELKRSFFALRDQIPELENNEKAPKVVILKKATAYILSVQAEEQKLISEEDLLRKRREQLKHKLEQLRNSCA
T2 sequence (Q8N122 whole entry, looked up, other chains not shown): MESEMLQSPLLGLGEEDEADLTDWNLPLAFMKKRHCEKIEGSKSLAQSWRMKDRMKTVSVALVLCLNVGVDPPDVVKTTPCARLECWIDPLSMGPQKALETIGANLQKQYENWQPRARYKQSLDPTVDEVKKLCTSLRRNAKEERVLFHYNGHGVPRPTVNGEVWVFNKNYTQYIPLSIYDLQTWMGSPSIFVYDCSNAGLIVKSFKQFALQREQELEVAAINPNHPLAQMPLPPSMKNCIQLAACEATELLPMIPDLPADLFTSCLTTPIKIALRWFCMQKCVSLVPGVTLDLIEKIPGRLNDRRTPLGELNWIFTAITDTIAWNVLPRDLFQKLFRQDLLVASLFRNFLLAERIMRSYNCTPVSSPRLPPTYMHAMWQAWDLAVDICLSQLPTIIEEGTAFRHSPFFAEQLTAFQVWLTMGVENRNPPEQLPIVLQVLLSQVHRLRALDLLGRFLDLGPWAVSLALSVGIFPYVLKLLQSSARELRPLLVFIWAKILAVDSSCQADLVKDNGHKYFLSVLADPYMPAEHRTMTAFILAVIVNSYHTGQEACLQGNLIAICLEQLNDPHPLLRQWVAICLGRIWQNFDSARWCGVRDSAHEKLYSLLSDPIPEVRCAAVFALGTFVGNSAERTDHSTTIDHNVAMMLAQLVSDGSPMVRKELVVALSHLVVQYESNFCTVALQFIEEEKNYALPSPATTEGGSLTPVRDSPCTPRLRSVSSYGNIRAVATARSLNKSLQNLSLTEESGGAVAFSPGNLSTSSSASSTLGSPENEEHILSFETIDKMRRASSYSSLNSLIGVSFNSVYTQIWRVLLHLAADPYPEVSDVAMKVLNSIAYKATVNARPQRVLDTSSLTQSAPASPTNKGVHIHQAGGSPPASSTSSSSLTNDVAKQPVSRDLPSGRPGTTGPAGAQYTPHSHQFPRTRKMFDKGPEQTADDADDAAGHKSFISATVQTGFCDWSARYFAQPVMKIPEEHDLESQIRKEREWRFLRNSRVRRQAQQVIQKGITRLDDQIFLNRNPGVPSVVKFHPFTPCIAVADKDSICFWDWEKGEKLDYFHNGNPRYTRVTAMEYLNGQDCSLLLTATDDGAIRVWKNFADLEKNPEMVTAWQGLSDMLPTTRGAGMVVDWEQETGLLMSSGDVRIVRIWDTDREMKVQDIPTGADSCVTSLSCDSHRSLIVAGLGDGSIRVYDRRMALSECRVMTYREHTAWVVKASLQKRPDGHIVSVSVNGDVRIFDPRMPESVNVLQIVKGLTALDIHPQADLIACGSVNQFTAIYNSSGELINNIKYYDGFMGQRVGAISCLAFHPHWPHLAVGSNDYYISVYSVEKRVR
T2 sequence (Q9BVC4 whole entry, looked up, other chains not shown): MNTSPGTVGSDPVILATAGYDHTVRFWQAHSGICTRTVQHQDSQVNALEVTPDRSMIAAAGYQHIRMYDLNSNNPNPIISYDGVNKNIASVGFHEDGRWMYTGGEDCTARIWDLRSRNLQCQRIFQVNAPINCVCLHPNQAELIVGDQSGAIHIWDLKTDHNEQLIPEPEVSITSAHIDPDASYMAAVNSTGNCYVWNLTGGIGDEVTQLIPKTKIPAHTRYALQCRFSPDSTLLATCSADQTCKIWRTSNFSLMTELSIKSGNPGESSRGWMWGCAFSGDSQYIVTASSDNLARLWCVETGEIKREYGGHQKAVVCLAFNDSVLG
Tyrosine-protein kinase FRK (Homo sapiens), sequence (P42685 whole entry): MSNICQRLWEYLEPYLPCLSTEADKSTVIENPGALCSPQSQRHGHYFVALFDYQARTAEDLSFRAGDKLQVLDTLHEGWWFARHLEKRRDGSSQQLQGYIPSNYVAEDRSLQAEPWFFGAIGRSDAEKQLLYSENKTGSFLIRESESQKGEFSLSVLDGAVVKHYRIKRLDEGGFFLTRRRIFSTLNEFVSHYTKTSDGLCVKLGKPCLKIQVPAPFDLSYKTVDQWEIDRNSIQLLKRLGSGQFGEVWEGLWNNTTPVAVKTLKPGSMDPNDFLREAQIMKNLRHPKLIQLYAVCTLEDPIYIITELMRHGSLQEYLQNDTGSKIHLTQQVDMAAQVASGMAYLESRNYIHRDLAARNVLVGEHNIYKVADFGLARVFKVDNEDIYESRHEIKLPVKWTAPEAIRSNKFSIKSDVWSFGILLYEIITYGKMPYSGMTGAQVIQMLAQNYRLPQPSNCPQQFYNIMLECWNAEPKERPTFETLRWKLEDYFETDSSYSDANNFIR

Structure (SMILES) | Activity [1] | Activity [2] | inhibition (mTORC1 (Homo sapiens) [3]) | inhibition (mTORC1 (Homo sapiens) [4]) | inhibition (mTORC1 (Homo sapiens) [5]) | inhibition (mTORC1 (Homo sapiens) [6]) | inhibition (mTORC1 (Homo sapiens) [7]) | inhibition (mTORC1 (Homo sapiens) [8]) | inhibition (mTORC1 (Homo sapiens) [9]) | inhibition (mTORC1 (Homo sapiens) [10]) | inhibition (mTORC1 (Homo sapiens) [11]) | inhibition (mTORC1 (Homo sapiens) [12]) | inhibition (mTORC1 (Homo sapiens) [13]) | inhibition (mTORC1 (Homo sapiens) [14]) | Activity (LY7 [15]) | Activity (Z-138) | Activity (H9) | Activity (OCI-Ly10 [16]) | Activity (JeKo-1) | Activity (Rec1) | also measured
C[C@H](Nc1ncnc2nc[nH]c12)c1cc2cccc(Cl)c2c(=O)n1-c1ccccc1 | 96.9% | 105% |  |  |  |  |  |  |  |  |  |  |  |  |  |  |  |  |  |  | 
CC[C@H](Nc1ncnc2[nH]cnc12)c1nc2cccc(F)c2c(=O)n1-c1ccccc1 | 94% | 96.5% | inactive | inactive | inactive | inactive | inactive | inactive | inactive | inactive | inactive | inactive | inactive | Active | Active | Active | Active | Active | Active | Active | Activity (OCI-Ly10 [17]): Active; Activity (LY7 [18]): Active; Activity (PF-382): Active; Activity (SLL): Active; Activity (MZL): Active; Activity (OCI-Ly10 [19]): Active; inhibition (mTORC1 (Homo sapiens) [20]): inactive; inhibition (mTORC1 (Homo sapiens) [21]): inactive; inhibition [22]: inactive; inhibition [23]: inactive; inhibition [24]: inactive; inhibition [25]: inactive
CC(C)Oc1ccc(-c2nn([C@@H](C)c3oc4ccc(F)cc4c(=O)c3-c3cccc(F)c3)c3ncnc(N)c23)cc1F [UMBRALISIB] | 95.3% | 104% | inactive | inactive | inactive | inactive | inactive | inactive | Active | inactive | inactive | inactive | inactive | Active | Active | Active | Active | Active | Active | Active | Activity (OCI-Ly10 [17]): Active; Activity (LY7 [18]): Active; Activity (PF-382): Active; Activity (SLL): Active; Activity (MZL): Active; Activity (OCI-Ly10 [19]): Active; inhibition (mTORC1 (Homo sapiens) [20]): inactive; inhibition (mTORC1 (Homo sapiens) [21]): inactive; inhibition [22]: inactive; inhibition [23]: inactive; inhibition [24]: inactive; inhibition [25]: inactive
